Assay results: ChEMBL document CHEMBL1151115, “Brianthein V, a New Cytotoxic and Antiviral Diterpene Isolated from Briareum asbestinum” (J Nat Prod, 1988)
Calls of active or inactive are those of the source. No cut-off for these calls is given here.

Legend:
P388 [1] = experiment: Cytotoxicity against mouse P388 cells at 10 ug/ml; type: functional, cell-based
Murine hepatitis virus [2] = experiment: Antiviral activity against mouse coronavirus at 80 ug/ml; type: functional, organism-based
Human alphaherpesvirus 1 [3] = experiment: Antiviral activity against herpes simplex virus 1 at 80 ug/ml; type: functional, organism-based
P388 [4] = experiment: Cytotoxicity against mouse P388 cells at 0.1 ug; type: functional, cell-based
Murine hepatitis virus [5] = experiment: Antiviral activity against mouse coronavirus at 10 ug; type: functional, organism-based
Human alphaherpesvirus 1 [6] = experiment: Antiviral activity against herpes simplex virus 1 at 20 ug; type: functional, organism-based
Murine hepatitis virus [7] = experiment: Antiviral activity against mouse coronavirus at 50 ug/ml; type: functional, organism-based
P388 [8] = experiment: Cytotoxicity against mouse P388 cells at 13 ug/ml; type: functional, cell-based
Murine hepatitis virus [9] = experiment: Antiviral activity against mouse coronavirus at 400 ug/ml; type: functional, organism-based

## C=C1/C=C\[C@H](OC(C)=O)[C@]2(C)[C@H]([C@@H](C)[C@H](OC(C)=O)[C@@H]3O[C@@H]32)[C@H](OC(C)=O)[C@]2(O)[C@@H](C)C(=O)O[C@H]2[C@H]1Cl
P388 [1]
  Activity: Active
Murine hepatitis virus [2]
  Activity: Active
Human alphaherpesvirus 1 [3]
  Activity: Active

## O=c1[nH]cc(F)c(=O)[nH]1
P388 [4]
  Activity: Active

## NC(=O)c1ncn([C@@H]2O[C@H](CO)[C@@H](O)[C@H]2O)n1
Murine hepatitis virus [5]
  Activity: Active

## Nc1ncnc2c1ncn2[C@@H]1O[C@H](CO)[C@@H](O)[C@@H]1O
Human alphaherpesvirus 1 [6]
  Activity: Active

## C=C1/C=C\[C@H](OC(=O)CCC)[C@]2(C)[C@H]([C@@H](C)[C@H](OC(=O)CCC)[C@@H]3O[C@@H]32)[C@H](OC(C)=O)[C@]2(O)[C@@H](C)C(=O)O[C@H]2[C@H]1Cl
Murine hepatitis virus [7]
  Activity: Active
P388 [8]
  Activity: Active

## C=C1/C=C\[C@H](OC(=O)CCC)[C@]2(C)[C@H]([C@@H](C)[C@H](OC(C)=O)[C@@H]3O[C@@H]32)[C@H](OC(C)=O)[C@]2(O)[C@@H](C)C(=O)O[C@H]2[C@H]1Cl
Murine hepatitis virus [9]
  Activity: Active
